Data published in patent US9340554B2, “IRAK inhibitors and uses thereof” (Nimbus Iris, Inc., priority 2011, dated 2016).

Target: T1, IRAK4 (Homo sapiens, UniProt Q9NWZ3)
T1 construct: purchased CARNA Bioscience 09-145
T1 sequence (Q9NWZ3 1-460): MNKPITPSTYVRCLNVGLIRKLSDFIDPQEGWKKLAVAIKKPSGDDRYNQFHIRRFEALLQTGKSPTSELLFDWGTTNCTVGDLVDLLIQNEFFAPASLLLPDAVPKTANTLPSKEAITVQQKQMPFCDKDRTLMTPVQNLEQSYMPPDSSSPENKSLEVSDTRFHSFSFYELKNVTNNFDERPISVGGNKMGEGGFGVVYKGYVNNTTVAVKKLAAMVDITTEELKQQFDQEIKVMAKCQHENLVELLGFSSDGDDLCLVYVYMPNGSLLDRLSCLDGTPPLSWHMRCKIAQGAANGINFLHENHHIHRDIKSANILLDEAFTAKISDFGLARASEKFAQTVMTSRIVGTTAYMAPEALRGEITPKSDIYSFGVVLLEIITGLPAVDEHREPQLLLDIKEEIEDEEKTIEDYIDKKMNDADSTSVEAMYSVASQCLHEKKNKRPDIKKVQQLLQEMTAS
Test: IRAK-4 activity inhibition assay (Caliper, Peptide 8, 37 μM ATP)
Format: biochemical
Conditions: 3.5 nM IRAK4, 1.5 μM Peptide 8, 37 μM ATP, 28° C. 40 minutes; read-out: IRAK-4 activity inhibition IC50
Procedure: A 1× kinase base buffer was prepared from 50 mM HEPES, pH 7.5 and 0.0015% Brij-35. A stop buffer was prepared from 100 mM HEPES, pH 7.5, 0.015% Brij-35, 0.2% Coating Reagent #3, and 50 mM EDTA.
Test compound was diluted to 50× of the final desired highest inhibitor concentration in reaction by 100% DMSO. 100 ul of this compound dilution was transferred to a well in a 96-well plate.
Test compound was serially diluted by transferring 30 μl to 60 μl of 100% DMSO in the next well and so forth for a total of 10 concentrations. 100 μl of 100% DMSO was added to two empty wells for no compound control and no enzyme control in the same 96-well plate.
A new 96-well plate was marked as intermediate plate. 5 μl of compound serial dilution was transferred from source plate to the corresponding wells of the intermediate plate. 45 μl of 1× kinase base buffer (KB buffer) was added to each well of the intermediate plate. The intermediate plate was placed for 10 min on a shaker.
5 μl of each well was transferred from the 96-well intermediate plate to a 384-well plate in duplicates. […] A2 of the 96-well plate is transferred to A3 and A4 of the 384-well plate, and so on.
IRAK4 and DTT in 1× kinase base buffer was added.
Assay plate already contained 5 μl of compound in 10% DMSO. Added 10 μl of 2.5× enzyme solution to each well of the 384-well assay plate, except no enzyme control wells. […] Added 10 μl of 1× kinase base buffer to no enzyme control wells in the assay plate. Incubated at room temperature for 10 min.
Added 10 μl of 2.5× peptide solution to each well of the 384-well assay plate. […] Incubated at 28° C. for 40 minutes. Added 25 μl of stop buffer to stop reaction. Collected data on Caliper.
Copied conversion % data from Caliper program. Converted conversion % values to percent inhibition values. Percent inhibition=(max−conversion %)/(max−min)*100, where “max” means the conversion % of DMSO control and “min” means the conversion % of no enzyme control.
The compound numbers correspond to the compound numbers in Table 1. […] “NA” stands for “not assayed.”

Row | SMILES | IC50
1 | CC1(C)CCc2sc3ncnc(N4CCC(C(N)=O)CC4)c3c2C1 [Compound I-46] | 20 to 50 µM
2 | C[C@@H]1CCc2sc3ncnc(N[C@H]4CC[C@H](O)CC4)c3c2C1 [Compound I-47, trans-4-(((R)-6-methyl-5,6,7,8-tetrahydrobenzo[4,5]thieno[2,3-d]pyrimidin-4-yl)amino)cyclohexanol] | 5 to 20 µM
3 | C[C@@H]1CCc2sc3ncnc(N[C@H]4CC[C@H](N)CC4)c3c2C1 [Compound I-48, trans-N^1-((R)-6-methyl-5,6,7,8-tetrahydrobenzo[4,5]thieno[2,3-d]pyrimidin-4-yl)cyclohexane-1,4-diamine] | < 5 µM
4 | N[C@H]1CC[C@H](Nc2ncnc3sc4c(c23)CCCC4)CC1 [Compound I-49, trans-N^1-(5,6,7,8-tetrahydrobenzo[4,5]thieno[2,3-d]pyrimidin-4-yl)cyclohexane-1,4-diamine] | < 5 µM
5 | CN(C)[C@H]1CC[C@H](Nc2ncnc3sc4c(c23)CCCC4)CC1 [Compound I-50, trans-N^1,N^1-dimethyl-N^4-(5,6,7,8-tetrahydrobenzo[4,5]thieno[2,3-d]pyrimidin-4-yl)cyclohexane-1,4-diamine] | < 5 µM
6 | CC1CCc2sc3ncnc(N[C@H]4CC[C@H](N)CC4)c3c2C1 (stereo partly drawn) [Compound I-51, trans-N^1-(6-methyl-5,6,7,8-tetrahydrobenzo[4,5]thieno[2,3-d]pyrimidin-4-yl)cyclohexane-1,4-diamine] | < 5 µM
7 | CN[C@H]1CC[C@H](Nc2ncnc3sc4c(c23)CC(C)CC4)CC1 (stereo partly drawn) [Compound I-52, trans-N^1-methyl-N4-(6-methyl-5,6,7,8-tetrahydrobenzo[4,5]thieno[2,3-d]pyrimidin-4-yl)cyclohexane-1,4-diamine] | < 5 µM
8 | CN[C@H]1CC[C@H](Nc2ncnc3sc4c(c23)CCCC4)CC1 [Compound I-53, trans-N^1-methyl-N4-(5,6,7,8-tetrahydrobenzo[4,5]thieno[2,3-d]pyrimidin-4-yl)cyclohexane-1,4-diamine] | < 5 µM
9 | CC1CCc2sc3ncnc(N[C@H]4CC[C@H](N(C)C)CC4)c3c2C1 (stereo partly drawn) [Compound I-54, trans-N^1,N^1-dimethyl-N^4-(6-methyl-5,6,7,8-tetrahydrobenzo[4,5]thieno[2,3-d]pyrimidin-4-yl)cyclohexane-1,4-diamine] | < 5 µM
10 | CCC1CCc2c(sc3ncnc(N[C@H]4CC[C@H](N(C)C)CC4)c23)C1 (stereo partly drawn) [Compound I-55, trans-N^1-(7-ethyl-5,6,7,8-tetrahydrobenzo[4,5]thieno[2,3-d]pyrimidin-4-yl)-N^4,N^4-dimethylcyclohexane-1,4-diamine] | < 5 µM
11 | C[C@@H]1CCc2sc3ncnc(N[C@H]4CC[C@H](N(C)C)CC4)c3c2C1 [Compound I-56, trans-N^1,N^1-dimethyl-N^4-((R)-6-methyl-5,6,7,8-tetrahydrobenzo[4,5]thieno[2,3-d]pyrimidin-4-yl)cyclohexane-1,4-diamine] | < 5 µM
12 | Cc1sc2ncnc(N[C@H]3CC[C@H](N)CC3)c2c1C [Compound I-57, trans-N^1-(5,6-dimethylthieno[2,3-d]pyrimidin-4-yl)cyclohexane-1,4-diamine] | < 5 µM
13 | CCC1CCc2c(sc3ncnc(N[C@H]4CC[C@H](NC)CC4)c23)C1 (stereo partly drawn) [Compound I-58, trans-N1-(7-ethyl-5,6,7,8-tetrahydrobenzo[4,5]thieno[2,3-d]pyrimidin-4-yl)-N4-methylcyclohexane-1,4-diamine] | < 5 µM
14 | c1nc(NCC2CCNCC2)c2c3c(sc2n1)CCC3 [Compound I-59] | 20 to 50 µM
15 | c1nc(OCC2CCNCC2)c2c3c(sc2n1)CCC3 [Compound I-60] | 5 to 20 µM
16 | N[C@H]1CC[C@H](Oc2ncnc3sc4c(c23)CCC4)CC1 [Compound I-61, trans-4-((6,7-dihydro-5H-cyclopenta[4,5]thieno[2,3-d]pyrimidin-4-yl)oxy)cyclohexanamine] | < 5 µM
17 | CNCC1CCN(c2ncnc3sc4c(c23)CCC4)CC1 [Compound I-62] | 5 to 20 µM
18 | NCC1CCN(c2ncnc3sc4c(c23)CCC4)CC1 [Compound I-63] | 5 to 20 µM
19 | CN1CCC(COc2ncnc3sc4c(c23)CCC4)CC1 [Compound I-64] | 20 to 50 µM

Further lines, results first:

Row | IC50 | SMILES
20 | 5 to 20 µM | O=C(O)CN[C@H]1CC[C@H](Nc2ncnc3sc4c(c23)CCC4)CC1 [Compound I-65, 2-((trans-4-((6,7-dihydro-5H-cyclopenta[4,5]thieno[2,3-d]pyrimidin-4-yl)amino)cyclohexyl)amino)acetic acid]
21 | < 5 µM | CN[C@H]1CC[C@H](Oc2ncnc3sc4c(c23)CCC4)CC1 [Compound I-66, trans-4-((6,7-dihydro-5H-cyclopenta[4,5]thieno[2,3-d]pyrimidin-4-yl)oxy)-N-methylcyclohexanamine]
22 | < 5 µM | CN(C)[C@H]1CC[C@H](Oc2ncnc3sc4c(c23)CCC4)CC1 [Compound I-67, trans-4-((6,7-dihydro-5H-cyclopenta[4,5]thieno[2,3-d]pyrimidin-4-yl)oxy)-N,N-dimethylcyclohexanamine]
23 | 5 to 20 µM | O=C(O)CN[C@H]1CC[C@H](Oc2ncnc3sc4c(c23)CCC4)CC1 [Compound I-68, 2-((trans-4-((6,7-dihydro-5H-cyclopenta[4,5]thieno[2,3-d]pyrimidin-4-yl)oxy)cyclohexyl)amino)acetic acid]
24 | > 50 µM | CN(C)CC1CCN(c2ncnc3sc4c(c23)CCC4)CC1 [Compound I-69]
25 | < 5 µM | CCN[C@H]1CC[C@H](Nc2ncnc3sc4c(c23)CCC4)CC1 [Compound I-70]
26 | < 5 µM | CCN[C@H]1CC[C@H](Nc2ncnc3sc4c(c23)CCC4)CC1 [Compound I-71, trans-N^1-(6,7-dihydro-5H-cyclopenta[4,5]thieno[2,3-d]pyrimidin-4-yl)-N^4-ethylcyclohexane-1,4-diamine]
27 | < 5 µM | CCN(CC)[C@H]1CC[C@H](Nc2ncnc3sc4c(c23)CCC4)CC1 [Compound I-72, trans-N^1-(6,7-dihydro-5H-cyclopenta[4,5]thieno[2,3-d]pyrimidin-4-yl)-N^4,N^4-diethylcyclohexane-1,4-diamine]
28 | < 5 µM | CN(Cc1c(F)cccc1Cl)[C@H]1CC[C@H](Nc2ncnc3sc4c(c23)CCC4)CC1 [Compound I-99, 1-N-[(2-chloro-6-fluorophenyl)methyl]-1-N-methyl-4-N-[7-thia-9,11-diazatricyclo[6.4.0.0^[2,6]]dodeca-1(8),2(6),9,11-tetraen-12-yl]cyclohexane-1,4-diamine]
29 | < 5 µM | CN(Cc1ccncc1Cl)[C@H]1CC[C@H](Nc2ncnc3sc4c(c23)CCC4)CC1 [Compound I-100, 1-N-[(3-chloropyridin-4-yl)methyl]-1-N-methyl-4-N-[7-thia-9,11-diazatricyclo[6.4.0.0^[2,6]]dodeca-1(8),2(6),9,11-tetraen-12-yl]cyclohexane-1,4-diamine]
30 | < 5 µM | CN(Cc1ccco1)[C@H]1CC[C@H](Nc2ncnc3sc4c(c23)CCC4)CC1 [Compound I-101, 1-N-(furan-2-ylmethyl)-1-N-methyl-4-N-[7-thia-9,11-diazatricyclo[6.4.0.0^[2,6]]dodeca-1(8),2(6),9,11-tetraen-12-yl]cyclohexane-1,4-diamine]
31 | 20 to 50 µM | CN(C(=O)Cc1cccc(Cl)c1)[C@H]1CC[C@H](Nc2ncnc3sc4c(c23)CCC4)CC1 [Compound I-102, 2-(3-chlorophenyl)-N-methyl-N-[4-([7-thia-9,11-diazatricyclo[6.4.0.0^[2,6]]dodeca-1(8),2(6),9,11-tetraen-12-yl]amino)cyclohexyl]acetamide]
